Data published in US20160207930A1 (LEO PHARMA A/S, priority 2013, published 2016).

Legend:
NK1 Receptor = biological target: T1, NK1 Receptor (Homo sapiens, UniProt P25103); assay: NK1 receptor mediated intracellular [Ca2+] mobilization in U251 MG cells using FLIPR; assay type: cell-based; details: antagonism of Substance P (EC80), Fluo-4, read-out: NK1R mediated intracellular [Ca^2+] mobilization IC 50
T1 construct: Measurement of NK1 Receptor Mediated Intracellular [Ca^2+]; Mobilization in U251 MG Cells Using FLIPR; endogenous in cells; host or cells: U251 MG cells
Method in brief: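 Fluo-4-loaded U251 MG cells preincubated with compound (0.5% DMSO final), checked 5 min for agonism, then 10 min at 37 °C before Substance P at EC80. Peak fluorescence change on FLIPR, normalized to 100 nM Aprepitant maximal response; IC50 by four-parameter logistic fit, reported as pIC50.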

[1] = Hepatic intrinsic clearance following incubation in human liver microsomes; assay type: in vitro ADME; details: 0.5 μM test compound, NADPH, 0-30 min, scaled to g liver
Method in brief: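 Compound incubated at 37° C with microsomes diluted to 0.55 mg/mL protein in 50 mM potassium phosphate pH 7.4 plus NADPH regenerating system; sampled 0–30 min and analysed by LC-MS/MS. Clint from ln(% parent remaining) slope, scaled to mL/min/g liver; Eh derived assuming 25.7 g/kg liver, 20.7 mL/min/kg blood flow.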

T1 sequence (P25103 whole entry): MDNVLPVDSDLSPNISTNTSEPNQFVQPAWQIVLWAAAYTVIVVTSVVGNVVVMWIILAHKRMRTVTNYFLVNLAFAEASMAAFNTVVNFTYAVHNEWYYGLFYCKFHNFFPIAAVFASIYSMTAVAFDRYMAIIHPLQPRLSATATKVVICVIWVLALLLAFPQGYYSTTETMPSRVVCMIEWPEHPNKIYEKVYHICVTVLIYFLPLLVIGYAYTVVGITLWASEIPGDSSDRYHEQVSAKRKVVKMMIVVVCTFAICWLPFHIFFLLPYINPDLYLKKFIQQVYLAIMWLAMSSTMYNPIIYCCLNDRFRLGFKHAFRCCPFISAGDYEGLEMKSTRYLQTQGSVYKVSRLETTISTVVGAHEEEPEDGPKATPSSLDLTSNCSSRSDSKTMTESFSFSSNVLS

| IC50 (NK1 Receptor) [nM] | Human in vitro Clint [1] [mL/min/g] | SMILES |
| --- | --- | --- |
| 28.6 | >200 | Cc1ncc([C@H]2[C@@H]3CCC(=O)N3CCN2C(=O)N(C)[C@H](C)c2cc(C(F)(F)F)cc(C(F)(F)F)c2)s1 [Compound 58, (1R,8aS)—N—((R)-1-(3,5-bis(trifluoromethyl)phenyl)ethyl)-N-methyl-1-(2-methylthiazol-5-yl)-6-oxohexahydropyrrolo[1,2-a]pyrazine-2(1H)-carboxamide] |
| 1.23 | 67 | Cc1nn(C)cc1[C@H]1[C@@H]2CCC(=O)N2CCN1C(=O)N(C)[C@H](C)c1cc(C(F)(F)F)cc(C(F)(F)F)c1 [Compound 64, (1S,8aS)—N—((R)-1-(3,5-bis(trifluoromethyl)phenyl)ethyl)-1-(1,3-dimethyl-1H-pyrazol-4-yl)-N-methyl-6-oxohexahydropyrrolo[1,2-a]pyrazine-2(1H)-carboxamide] |
| 0.365 | >200 | Cc1cc([C@@H](C)N(C)C(=O)N2CCN3C(=O)CC[C@H]3[C@@H]2c2cccc(C)c2C)cc(C(F)(F)F)c1 [Compound 65] |
| 0.14 | 51 | Cc1c(Cl)cccc1[C@H]1[C@@H]2CCC(=O)N2CCN1C(=O)N(C)[C@H](C)c1cc(C(F)(F)F)cc(C(F)(F)F)c1 [Compound 66, (1S,8aS)—N—((R)-1-(3,5-bis(trifluoromethyl)phenyl)ethyl)-1-(3-chloro-2-methylphenyl)-N-methyl-6-oxohexahydropyrrolo[1,2-a]pyrazine-2(1H)-carboxamide] |
| 0.26 | >200 | CCc1ccccc1[C@H]1[C@@H]2CCC(=O)N2CCN1C(=O)N(C)[C@H](C)c1cc(C(F)(F)F)cc(C(F)(F)F)c1 [Compound 68, N—((R)-1-(3,5-bis(trifluoromethyl)phenyl)ethyl)-1-(2-ethylphenyl)-N-methyl-6-oxohexahydropyrrolo[1,2-a]pyrazine-2(1H)-carboxamide] |
| 0.34 | >200 | Cc1csc([C@H]2[C@@H]3CCC(=O)N3CCN2C(=O)N(C)[C@H](C)c2cc(C(F)(F)F)cc(C(F)(F)F)c2)c1C [Compound 75, (1R,8aS)—N—((R)-1-(3,5-bis(trifluoromethyl)phenyl)ethyl)-1-(3,4-dimethylthiophen-2-yl)-N-methyl-6-oxohexahydropyrrolo[1,2-a]pyrazine-2(1H)-carboxamide] |
| 0.26 | >200 | CCc1cc([C@@H](C)N(C)C(=O)N2CCN3C(=O)CC[C@H]3[C@@H]2c2scc(C)c2C)cc(C(F)(F)F)c1 [Compound 76, (1R,8aS)-1-(3,4-dimethylthiophen-2-yl)-N—((R)-1-(3-ethyl-5-(trifluoromethyl)phenyl)ethyl)-N-methyl-6-oxohexahydropyrrolo[1,2-a]pyrazine-2(1H)-carboxamide] |
| 0.52 | >200 | COc1cccc([C@H]2[C@@H]3CCC(=O)N3CCN2C(=O)N(C)[C@H](C)c2cc(C(F)(F)F)cc(C(F)(F)F)c2)c1C [Compound 77, (1S,8aS)—N—((R)-1-(3,5-bis(trifluoromethyl)phenyl)ethyl)-1-(3-methoxy-2-methylphenyl)-N-methyl-6-oxohexahydropyrrolo[1,2-a]pyrazine-2(1H)-carboxamide] |
| 1.86 | >200 | COc1cccc([C@H]2[C@@H]3CCC(=O)N3CCN2C(=O)N(C)[C@H](C)c2cc(C(C)C)cc(C(F)(F)F)c2)c1C [Compound 78, (1S,8aS)—N—((R)-1-(3-isopropyl-5-(trifluoromethyl)phenyl)ethyl)-1-(3-methoxy-2-methylphenyl)-N-methyl-6-oxohexahydropyrrolo[1,2-a]pyrazine-2(1H)-carboxamide] |
| 100 | >200 | C[C@H](c1cc(C(F)(F)F)cc(C(F)(F)F)c1)N(C)C(=O)N1CCN2C(=O)CC[C@H]2[C@@H]1c1ccc(F)cc1 [Compound 85, (1S,8aS)—N—((R)-1-(3,5-bis(trifluoromethyl)phenyl)ethyl)-1-(4-fluorophenyl)-N-methyl-6-oxohexahydropyrrolo[1,2-a]pyrazine-2(1H)-carboxamide] |

Second part, the compound before the results:

| SMILES | IC50 (NK1 Receptor) [nM] | Human in vitro Clint [1] [mL/min/g] |
| --- | --- | --- |
| C[C@H](c1cc(C(F)(F)F)cc(C(F)(F)F)c1)N(C)C(=O)N1CCN2C(=O)CC[C@H]2[C@@H]1c1cncs1 [Compound 59, (1R,8aS)—N—((R)-1-(3,5-bis(trifluoromethyl)phenyl)ethyl)-N-methyl-6-oxo-1-(thiazol-5-yl)-hexahydropyrrolo[1,2-a]pyrazine-2(1H)-carboxamide] | 29.4 | >200 |
| CCc1cc([C@@H](C)N(C)C(=O)N2CCN3C(=O)CC[C@H]3[C@@H]2c2c[nH]nc2C)cc(C(F)(F)F)c1 [Compound 61, (1S,8aS)—N—((R)-1-(3-ethyl-5-(trifluoromethyl)phenyl)ethyl)-N-methyl-1-(3-methyl-1H-pyrazol-4-yl)-6-oxohexahydropyrrolo[1,2-a]pyrazine-2(1H)-carboxamide] | 59 | >200 |
| CCc1cc([C@@H](C)N(C)C(=O)N2CCN3C(=O)C(CCO)(CCO)C[C@H]3[C@@H]2c2c[nH]nc2C)cc(C(F)(F)F)c1 [Compound 62, (1S,8aS)—N—((R)-1-(3-ethyl-5-(trifluoromethyl)phenyl)ethyl)-7,7-bis(2-hydroxyethyl)-N-methyl-1-(3-methyl-1H-pyrazol-4-yl)-6-oxohexahydropyrrolo[1,2-a]pyrazine-2(1H)-carboxamide] | 1.07 | 115 |
| Cc1cc([C@@H](C)N(C)C(=O)N2CCN3C(=O)C(CCO)(CCO)C[C@H]3[C@@H]2c2c[nH]nc2C)cc(C(F)(F)F)c1 [Compound 63, (1S,8aS)-7,7-bis(2-hydroxyethyl)-N-methyl-1-(3-methyl-1H-pyrazol-4-yl)-N—((R)-1-(3-methyl-5-(trifluoromethyl)phenyl)ethyl)-6-oxo-hexahydropyrrolo[1,2-a]pyrazine-2(1H)-carboxamide] | 9.29 | 51 |
| C[C@H](c1cc(C(F)(F)F)cc(C(F)(F)F)c1)N(C)C(=O)N1CCN2C(=O)CC[C@H]2[C@@H]1c1ccccc1CO [Compound 74, (1S,8aS)—N—((R)-1-(3,5-bis(trifluoromethyl)phenyl)ethyl)-1-(2-(hydroxymethyl)phenyl)-N-methyl-6-oxohexahydropyrrolo[1,2-a]pyrazine-2(1H)-carboxamide] | 0.11 | >200 |
| C[C@H](c1cc(C(F)(F)F)cc(C(F)(F)F)c1)N(C)C(=O)N1CCN2C(=O)CC[C@H]2[C@@H]1c1cccc2c1CCC2 [Compound 79, (1S,8aS)—N—((R)-1-(3,5-bis(trifluoromethyl)phenyl)ethyl)-1-(2,3-dihydro-1H-inden-4-yl)-N-methyl-6-oxohexahydropyrrolo[1,2-a]pyrazine-2(1H)-carboxamide] | 2.57 | >200 |
| CCc1cc([C@@H](C)N(C)C(=O)N2CCN3C(=O)CC[C@H]3[C@@H]2c2cccc3c2CCC3)cc(C(F)(F)F)c1 [Compound 80, (1S,8aS)-1-(2,3-dihydro-1H-inden-4-yl)-N—((R)-1-(3-ethyl-5-(trifluoromethyl)phenyl)ethyl)-N-methyl-6-oxohexahydropyrrolo[1,2-a]pyrazine-2(1H)-carboxamide] | 0.79 | >200 |
| CC(C)c1cc([C@@H](C)N(C)C(=O)N2CCN3C(=O)CC[C@H]3[C@@H]2c2cccc3c2CCC3)cc(C(F)(F)F)c1 [Compound 81, (1S,8aS)-1-(2,3-dihydro-1H-inden-4-yl)-N—((R)-1-(3-isopropyl-5-(trifluoromethyl)phenyl)ethyl)-N-methyl-6-oxohexahydropyrrolo[1,2-a]pyrazine-2(1H)-carboxamide] | 3.5 | >200 |
| Cc1cccc(F)c1[C@H]1[C@@H]2CCC(=O)N2CCN1C(=O)N(C)[C@H](C)c1cc(C(F)(F)F)cc(C(F)(F)F)c1 [Compound 82, (1S,8aS)—N—((R)-1-(3,5-bis(trifluoromethyl)phenyl)ethyl)-1-(2-fluoro-6-methylphenyl)-N-methyl-6-oxohexahydropyrrolo[1,2-a]pyrazine-2(1H)-carboxamide] | 0.13 | >200 |
